Laboratory results as given in patent US20060069132A1, “Azolecarboxamide herbicides” (priority 2004, published 2006).

Columns and labels:
redroot pigweed = assay: Test A pre-/postemergence herbicide test; assay type: in vivo, Amaranthus retroflexus; conditions: for Plant response rating, Pigweed: Postemergence; for Pigweed plant response rating: Preemergence
Outline: (§1)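 Pre: seeded sandy loam, directed soil spray, compound in non-phytotoxic solvent + surfactant. Post: 1–2-leaf plants (2–10 cm), sprayed to runoff. Greenhouse ~10 d; visual injury vs untreated, 0–100 scale.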

lambsquarters = assay: Test C pre-/postemergence herbicide test; assay type: in vivo, Chenopodium album
Outline: (§2)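 Visual injury scores run from 0 (no effect) to 100 (complete control), assessed relative to untreated controls 12 to 14 days after treatment in the greenhouse. Chemicals were formulated in a non-phytotoxic solvent mixture with surfactant and applied to soil after planting or to emerged plants at the 1- to 4-leaf stage.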

velvetleaf = assay: Test C pre-/postemergence herbicide test; assay type: in vivo, Abutilon theophrasti
Outline: as §2

morningglory [1] = assay: Test A pre-/postemergence herbicide test; assay type: in vivo, Ipomoea spp.; conditions: for Plant response rating, Morningglory: Postemergence; for Morningglory plant response rating: Preemergence
Outline: as §1

common ragweed = assay: Test C pre-/postemergence herbicide test; assay type: in vivo, Ambrosia elatior; set-up: key to Plant response rating, Ragweed: 0 = no effect, 100 = complete control
Outline: as §2

barnyardgrass = assay: Test A pre-/postemergence herbicide test; assay type: in vivo, Echinochloa crus-galli; conditions: for Plant response rating, Barnyardgrass: Postemergence; for Barnyardgrass plant response rating: Preemergence
Outline: as §1

rice = assay: Test C flooded paddy test; assay type: in vivo, Oryza sativa
Outline: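 Postemergence sprays applied to plants 2 to 18 cm tall (1- to 4-leaf stage); paddy species grown to 2-leaf stage under flooding. After 12 to 14 days in greenhouse, visual rating versus untreated controls on 0–100 scale (0 no effect, 100 complete control).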

bermudagrass = assay: Test C pre-/postemergence herbicide test; assay type: in vivo, Cynodon dactylon; conditions: for Plant response rating, Bermudagrass: visual, 12 to 14 days
Outline: as §2

[2] = test system: smallflower umbrella sedge; assay: Test C flooded paddy test; assay type: in vivo, Cyperus difformis
giant foxtail = assay: Test C pre-/postemergence herbicide test; assay type: in vivo, Setaria faberi; conditions: for Plant response rating, Foxtail, Giant: visual, 12 to 14 days
Outline: as §2

morningglory [3] = assay: Test C pre-/postemergence herbicide test; assay type: in vivo, Ipomoea coccinea; set-up: key to Plant response rating, Morningglory: 0 = no effect, 100 = complete control
Outline: as §2

large crabgrass = assay: Test C pre-/postemergence herbicide test; assay type: in vivo, Digitaria sanguinalis; conditions: for Plant response rating, Crabgrass, Large: visual, 12 to 14 days
Outline: as §2

[4] = 500 g ai/ha, 0 to 100 scale, 0 no effect, 100 complete control
[5] = 2000 g ai/ha, 0 to 100 scale, 0 no effect, 100 complete control
[6] = 500 g ai/ha, visual rating, 0 to 100 scale (0 no effect, 100 complete control)
[7] = 125 g ai/ha, scale 0 (no effect) to 100 (complete control), visual, 12 to 14 days, preemergence
[8] = Preemergence, 500 g ai/ha, scale 0 to 100, 0 no effect, 100 complete control
[9] = 62 g ai/ha, scale 0 to 100 (0 no effect, 100 complete control)
[10] = 125 g ai/ha, scale of 0 to 100, 0 is no effect, 100 is complete control
[11] = 250 g ai/ha, scale of 0 to 100, 0 is no effect, 100 is complete control
[12] = 500 g ai/ha, visual rating after 12 to 14 days, scale 0 to 100 (0 no effect, 100 complete control)
[13] = 125 g ai/ha, scale 0 (no effect) to 100 (complete control), preemergence
[14] = 250 g ai/ha, scale 0 to 100 (0 no effect, 100 complete control), preemergence

CCn1nc(C(C)(C)C)cc1C(=O)Nc1cccc2c1CCN(C1CC1)C2=O [Compound 64]
Plant response rating, Pigweed (redroot pigweed; [4]): 65
Plant response rating, Pigweed (redroot pigweed; [5]): 95
Pigweed plant response rating (redroot pigweed; [6]): 100
Pigweed plant response rating (redroot pigweed; [5]): 100
Plant response rating (0 = no effect, 100 = complete control), Lambsquarters (lambsquarters; 62 g ai/ha, preemergence): 0
Plant response rating, Lambsquarters (lambsquarters; [7]): 0
Lambsquarters plant response rating (lambsquarters; [8]): 90
Plant response rating, Velvetleaf (velvetleaf; [7]): 30
Velvetleaf plant response rating (velvetleaf; [8]): 60
Plant response rating, Morningglory (morningglory [1]; [4]): 10
Plant response rating, Morningglory (morningglory [1]; [5]): 10
Morningglory plant response rating (morningglory [1]; [6]): 0
Morningglory plant response rating (morningglory [1]; [5]): 5
Plant response rating (0 = no effect, 100 = complete control), Ragweed (common ragweed; 62 g ai/ha, preemergence): 0
Plant response rating, Ragweed (common ragweed; [7]): 0
Ragweed plant response rating (common ragweed; [8]): 20
Plant response rating, Barnyardgrass (barnyardgrass; [4]): 30
Plant response rating, Barnyardgrass (barnyardgrass; [5]): 75
Barnyardgrass plant response rating (barnyardgrass; [6]): 55
Barnyardgrass plant response rating (barnyardgrass; [5]): 85
Rice plant response rating (rice; [9]): 0
Rice plant response rating (rice; [10]): 0
Rice plant response rating (rice; [11]): 0
Plant response rating, Rice (rice; [12]): 15
Plant response rating (0 = no effect, 100 = complete control), Bermudagrass (bermudagrass; 62 g ai/ha, preemergence): 0
Plant response rating, Bermudagrass (bermudagrass; [13]): 30
Plant response rating, Bermudagrass (bermudagrass; [14]): 85
Bermudagrass plant response rating (bermudagrass; [8]): 90
Sedge, Umbrella plant response rating [2, 9]: 0
Sedge, Umbrella plant response rating [2, 10]: 25
Sedge, Umbrella plant response rating [2, 11]: 35
Plant response rating, Sedge, Umbrella [2, 12]: 75
Plant response rating (0 = no effect, 100 = complete control), Foxtail, Giant (giant foxtail; 62 g ai/ha, preemergence): 0
Plant response rating, Foxtail, Giant (giant foxtail; [13]): 0
Plant response rating, Foxtail, Giant (giant foxtail; [14]): 10
Foxtail, Giant plant response rating (giant foxtail; [8]): 80
Plant response rating (0 = no effect, 100 = complete control), Morningglory (morningglory [3]; 62 g ai/ha, preemergence): 0
Plant response rating, Morningglory (morningglory [3]; [7]): 0
Morningglory plant response rating (morningglory [3]; [8]): 0
Plant response rating (0 = no effect, 100 = complete control), Crabgrass, Large (large crabgrass; 62 g ai/ha, preemergence): 0
Plant response rating, Crabgrass, Large (large crabgrass; [13]): 40
Plant response rating, Crabgrass, Large (large crabgrass; [14]): 70
Crabgrass, Large plant response rating (large crabgrass; [8]): 90
